Test results: the NIST ThermoML archive (doi:10.1021/je049738c)

Legend:
[1] = xn = mol fraction of the nth substance listed; settings: 298.15 K, 101.3 kPa, Liquid
[2] = heat capacity at constant pressure per volume; xn = mol fraction of the nth substance listed; settings: 298.15 K, 101.3 kPa, Liquid, Flow calorimetry
[3] = 298.15 K; 101.33 kPa; Liquid
[4] = molar heat capacity at constant pressure; settings: 298.15 K; 101.33 kPa; Liquid; Flow calorimetry

CCC(C)O (stereo unspecified) [butan-2-ol] + O
Settings	heat capacity, [2] [J/K/m3]	mass density, [1] [kg/m3]
x1 = 0.001648	4177000	995.99
x1 = 0.00244	4181300	995.46
x1 = 0.003665	4188100	994.69
x1 = 0.006146	4201900	993.17
x1 = 0.006234	4202800	993.15
x1 = 0.008153	4213300	991.98
x1 = 0.009049	4218100	991.43
x1 = 0.01047	4226800	990.68
x1 = 0.01411	4248500	988.8
x1 = 0.01461	4251800	988.51
x1 = 0.01766	4270000	987

CCC(C)CO (stereo unspecified) [2-methyl-1-butanol] + O
Settings	heat capacity, [2] [J/K/m3]	mass density, [1] [kg/m3]
x1 = 0.000842	4172700	996.43
x1 = 0.000975	4173400	996.33
x1 = 0.001072	4174000	996.28
x1 = 0.001376	4175300	996.04
x1 = 0.001398	4175600	996.04
x1 = 0.00154	4176300	995.95
x1 = 0.002056	4179200	995.56
x1 = 0.002325	4180700	995.4
x1 = 0.002361	4180800	995.38
x1 = 0.002467	4181400	995.28
x1 = 0.002771	4182700	995.09
x1 = 0.002868	4183400	995.02
x1 = 0.002988	4184000	994.91
x1 = 0.003068	4184200	994.84
x1 = 0.003107	4184500	994.81
x1 = 0.003446	4186500	994.6

CC(C)CCO [3-methylbutan-1-ol] + O
Settings	heat capacity, [2] [J/K/m3]	mass density, [1] [kg/m3]
x1 = 0.000488	4170700	996.67
x1 = 0.000691	4171700	996.51
x1 = 0.001002	4173400	996.29
x1 = 0.001048	4173600	996.22
x1 = 0.00119	4174300	996.13
x1 = 0.001204	4174400	996.13
x1 = 0.001362	4175200	995.99
x1 = 0.001742	4177100	995.68
x1 = 0.002039	4178600	995.47
x1 = 0.002063	4178800	995.45
x1 = 0.002225	4179800	995.36

CC(C)C(C)O (stereo unspecified) [3-methyl-2-butanol]
Settings	mass density [kg/m3]	molar heat capacity at constant pressure [J/K/mol]
[3]	812.31	–
[4]	–	249.5

CC(C)O [propan-2-ol]
Settings	mass density [kg/m3]	molar heat capacity at constant pressure [J/K/mol]
[3]	780.72	–
[4]	–	155.2

CC(C)CO [2-methyl-1-propanol]
Settings	mass density [kg/m3]	molar heat capacity at constant pressure [J/K/mol]
[3]	797.63	–
[4]	–	181.9

CCCC(C)O (stereo unspecified) [pentan-2-ol] + O
Settings	heat capacity, [2] [J/K/m3]	mass density, [1] [kg/m3]
x1 = 0.001235	4176700	996.1
x1 = 0.001831	4180800	995.66
x1 = 0.002163	4182900	995.4
x1 = 0.002785	4187300	994.95
x1 = 0.003519	4192400	994.4
x1 = 0.004937	4202200	993.42
x1 = 0.0059	4209100	992.73
x1 = 0.00695	4217100	992.05

CC(C)(C)O [2-methylpropan-2-ol] + O
Settings	heat capacity, [2] [J/K/m3]	mass density, [1] [kg/m3]
x1 = 0.000883	4173400	996.41
x1 = 0.001796	4178600	995.74
x1 = 0.002923	4185200	994.98
x1 = 0.004051	4192000	994.22
x1 = 0.006409	4206500	992.64
x1 = 0.00867	4220900	991.22
x1 = 0.01153	4239100	989.43
x1 = 0.01716	4276400	986.35

CCCO [propan-1-ol]
Settings	mass density [kg/m3]	molar heat capacity at constant pressure [J/K/mol]
[3]	799.52	–
[4]	–	144.3

CCCCCO [pentan-1-ol] + O
Settings	heat capacity, [2] [J/K/m3]	mass density, [1] [kg/m3]
x1 = 0.001069	4174500	996.21
x1 = 0.001645	4177900	995.78
x1 = 0.001775	4178800	995.68
x1 = 0.001916	4179400	995.57
x1 = 0.002185	4181300	995.37
x1 = 0.002474	4182900	995.16
x1 = 0.002743	4184600	994.96
x1 = 0.003049	4186100	994.73
x1 = 0.003529	4189200	994.4

CCCCO [butan-1-ol]
Settings	mass density [kg/m3]	molar heat capacity at constant pressure [J/K/mol]
[3]	805.62	–
[4]	–	177.1
